Read-outs that look alike come from different tables or passages of the source.
What was measured:
Type in all cases: biochemical
[1] = molecular target: T1, human recombinant acetylcholinesterase (hrAChE) (Homo sapiens, UniProt P22303); assay: hrAChE inhibition, Ellman method (screening and IC50); settings: for IC50: mean ± standard error of the mean, triplicate determinations; for inhibition at 10 µM: read-out: hrAChE inhibition; for hrAChE inhibition (screening, in words): screening at 1 and 10 µM
T1 construct: made in house; host or cells: Hek293 derivatives (transient transfection, pcDNA3.4), collected from culture supernatant
Protocol: (§1) The hrAChE and hrBuChE were prepared as recombinant proteins at the University of Hradec Kralove. For their production, the mammalian expression system was used. Briefly, the DNA sequence encoding human AChE and BuChE was obtained from UniProtKB Server (www.uniprot.org, accession numbers: P22303 and P06276) and de novo synthesized as GeneArt Strings DNA fragments by GeneArt Gene Synthesis Service (Thermo Fisher Scientific, Pardubice, Czech Republic). The DNA fragments were PCR-amplified using gene-specific primers, adding the DNA sequence for C-terminal 6× His-tag. The amplicons were inserted into the mammalian pcDNA3.4 vector by TOPO cloning technology, and the final DNA constructs were verified by Sanger sequencing (ABI PRISM 3130xl). For protein expression, the DNA constructs were transiently transfected into Hek293 derivatives. Recombinant proteins were collected from culture supernatant 6 days later and stored at −80 °C for further purification.
(§2) The hrAChE and hrBuChE were purified using a NGC Medium-Pressure Chromatography System (Bio-Rad, USA). The total volume of 6–8 mL of medium containing secreted protein was desalted using 5 mL HiTrap Desalting column (GE Healthcare, Prague, Czech Republic) equilibrated with buffer A (20 mM sodium phosphate buffer, 150 mM NaCl, 15 mM imidazole, and 20% glycerol; pH 7.4). Acquired supernatant was loaded onto a 1 mL HisTrap FF column (GE Healthcare, Prague, Czech Republic) equilibrated with buffer A. Captured proteins were eluted with buffer B (20 mM sodium phosphate buffer, 150 mM NaCl, 500 mM imidazole, and 20% glycerol; pH 7.4). Imidazole was subsequently removed by repeated centrifugation in Amicon Ultra-4 (Ultracel-10K) tube (Merck Millipore). Protein concentration was determined by linearized Bradford method adapted for 96-well plate.
(§3) The catalytic activity of enzymes was determined by standard Ellman method adapted for 96-well plates. […]. The mixture was pre-incubated at 37 °C for 15 min, and subsequently substrate acetylthiocholine iodide (ATChI) or butyrylthiocholine iodide (BuTChI) was added to the final concentration of 1000 µM. The final volume of reaction was 100 µL. The product formed during the reaction 5-thio-2-nitrobenzoic acid (TNB) was determined by following its absorbance at 436 nm. The catalytic activity was evaluated as amount of product (%) formed by enzyme after 10 min of incubation at 37 °C. IC50 values of individual compounds were determined by non-linear regression using GraphPad Prism 7.

[2] = molecular target: T2, human recombinant butyrylcholinesterase (hrBuChE) (Homo sapiens, UniProt P06276); assay: hrBuChE inhibition, Ellman method (screening and IC50); settings: for inhibition at 10 µM: at 10 µM concentration; for IC50: mean ± standard error of the mean, triplicate determinations
T2 construct: made in house; host or cells: Hek293 derivatives (transient transfection, pcDNA3.4), collected from culture supernatant
Protocol: as §1, §2, §3

hrAChE = molecular target: T3, hrAChE (Homo sapiens, UniProt P22303); assay: Inhibition kinetics of hrAChE (Lineweaver-Burk)
T3 construct: made in house; host or cells: Hek293 derivatives (transient transfection, pcDNA3.4), collected from culture supernatant
Protocol: Compound with the highest inhibition potential against hrAChE was further analysed regarding its inhibition kinetics parameters (inhibition mechanism and inhibitory constant). […]. Inhibition mechanism and kinetic constant were determined by non-linear regression and double reciprocal method by Lineweaver-Burk using GraphPad Prism 7.

T2 sequence (P06276 29-602): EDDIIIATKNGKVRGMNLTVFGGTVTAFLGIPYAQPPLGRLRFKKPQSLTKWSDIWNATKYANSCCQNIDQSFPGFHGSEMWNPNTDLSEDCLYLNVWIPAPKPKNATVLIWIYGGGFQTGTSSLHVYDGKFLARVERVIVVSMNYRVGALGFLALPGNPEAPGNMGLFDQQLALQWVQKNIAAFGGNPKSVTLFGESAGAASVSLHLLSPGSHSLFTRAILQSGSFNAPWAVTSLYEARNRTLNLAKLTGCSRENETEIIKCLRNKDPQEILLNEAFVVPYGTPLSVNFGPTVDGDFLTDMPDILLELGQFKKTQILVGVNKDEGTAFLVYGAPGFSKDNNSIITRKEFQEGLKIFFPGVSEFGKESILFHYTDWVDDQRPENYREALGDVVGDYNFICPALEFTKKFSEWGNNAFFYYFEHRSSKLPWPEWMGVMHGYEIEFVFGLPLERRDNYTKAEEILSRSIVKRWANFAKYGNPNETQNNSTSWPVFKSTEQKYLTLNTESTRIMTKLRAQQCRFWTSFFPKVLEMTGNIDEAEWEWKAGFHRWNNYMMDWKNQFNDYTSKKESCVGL
T1 sequence (P22303 32-614): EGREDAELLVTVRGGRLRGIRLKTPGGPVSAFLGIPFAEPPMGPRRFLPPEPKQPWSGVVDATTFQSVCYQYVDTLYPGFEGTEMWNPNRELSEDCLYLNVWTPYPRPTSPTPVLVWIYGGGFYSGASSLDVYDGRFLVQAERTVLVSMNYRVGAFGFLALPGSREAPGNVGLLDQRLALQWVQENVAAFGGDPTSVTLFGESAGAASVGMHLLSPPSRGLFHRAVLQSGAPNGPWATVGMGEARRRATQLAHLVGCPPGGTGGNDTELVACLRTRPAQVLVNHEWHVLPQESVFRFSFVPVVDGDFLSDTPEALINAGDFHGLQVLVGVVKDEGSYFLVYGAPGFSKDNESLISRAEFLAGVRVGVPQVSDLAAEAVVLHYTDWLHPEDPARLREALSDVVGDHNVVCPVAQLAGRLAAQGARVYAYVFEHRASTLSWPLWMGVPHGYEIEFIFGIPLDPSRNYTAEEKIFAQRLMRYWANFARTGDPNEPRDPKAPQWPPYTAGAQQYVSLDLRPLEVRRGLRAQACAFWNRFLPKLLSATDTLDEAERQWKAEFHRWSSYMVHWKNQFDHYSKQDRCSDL
T3 sequence (P22303 32-614): as above

SMILES | Selectivity Index IC50 (hrBuChE)/IC50 (hrAChE) [1] | IC50 [1] [µM] | inhibition at 10 µM [1] [%] | inhibition at 10 µM [2] [%] | IC50 [2] [µM] | hrAChE inhibition (screening, in words) [1] | type of hrAChE inhibition (hrAChE; kinetic experiments) | Ki (hrAChE; non-competitive inhibition, ATChI 25-2000 µM) [µM] | inhibition at 10 µM ([1]; at 10 µM concentration) [%]
CC(C)N1CCN(CCCCOc2ccc3c(c2)NC(=O)CC3)CC1 [DQN7, 7-[4-(4-Isopropylpiperazin-1-yl)butoxy]-3,4-dihydroquinolin-2(1H)-one] | 11 | 1.58 ± 0.15 | 88 to 95 | 45 to 65 | 16.7 ± 0.46 | – | – | – | –
CN1CCN(CCCCOc2ccc3ccc(=O)[nH]c3c2)CC1 [QN4, 7-[4-(4-Methylpiperazin-1-yl)butoxy]quinolin-2(1H)-one] | – | – | – | – | – | low inhibition percentage | – | – | –
CN1CCN(CCCCOc2ccc3c(c2)NC(=O)CC3)CC1 [DQN3, 7-[4-(4-Methylpiperazin-1-yl)butoxy]-3,4-dihydroquinolin-2(1H)-one] | – | – | – | – | – | low inhibition percentage | – | – | –
CC(C)N1CCN(CCCCOc2ccc3ccc(=O)[nH]c3c2)CC1 [QN8, 7-[4-(4-Isopropylpiperazin-1-yl)butoxy]quinolin-2(1H)-one] | 44 | 0.29 ± 0.02 | – | 45 to 65 | 12.7 ± 0.45 | – | non-competitive | 0.079 | 88 to 95
CC(C)N1CCN(CCCCCOc2ccc3ccc(=O)[nH]c3c2)CC1 [QN9, 7-[5-(4-Isopropylpiperazin-1-yl)pentyloxy]quinolin-2(1H)-one] | 7 | 0.96 ± 0.04 | – | 45 to 65 | 6.7 ± 0.32 | – | – | – | 88 to 95
CN1CCN(CCCCCOc2ccc3ccc(=O)[nH]c3c2)CC1 [QN5, 7-[5-(4-Methylpiperazin-1-yl)pentyloxy]quinolin-2(1H)-one] | – | – | – | – | – | low inhibition percentage | – | – | –
